Columns and labels:
[1] = system: Plasmodium falciparum (strain NF54); assay: Antimalarial activity test: growth of Plasmodium falciparum in infected human erythrocytes, 3H-hypoxanthine incorporation; format: cell-based; conditions: strain NF54 sensitive to chloroquine, 72 h total incubation
Procedure, shortened: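 Chloroquine-sensitive NF54 parasites in human erythrocytes (1.25% hematocrit, 0.15% parasitemia) were grown in hypoxanthine-free RPMI 1640 with HEPES and Albumax II, with compound in twofold serial dilution, at 37 °C under 93% N2/4% CO2/3% O2. After 48 h, 3H-hypoxanthine (0.5 μCi) was added for 24 h. Scintillation counts versus drug-free control gave IC50.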

human PI3Kα = human PI3Kα (Homo sapiens (Human), UniProt P42336); assay: Human PI3Kα activity test (luciferin/luciferase ATP consumption, KinaseGlo); format: biochemical; conditions: PI3Kα (p110α/p85α), 50 μM PIP2, 2 μM ATP, 90 minutes; read-out: IC50 Human PI3Kα
Protocol: The test uses a luciferin/luciferase system to measure the concentration of ATP and its consumption during the enzymatic reaction.
After 90 minutes, the reaction is quenched by adding 20 μl/well of KinaseGlo reagent (Promega V6713). After 10 minutes in the dark, the luminescence is read using a PHERAStar microplate reader (reading at 0.8 sec/well).

[2] = Plasmodium falciparum, Erythrocyte

human PI3Kα, sequence (P42336 whole entry): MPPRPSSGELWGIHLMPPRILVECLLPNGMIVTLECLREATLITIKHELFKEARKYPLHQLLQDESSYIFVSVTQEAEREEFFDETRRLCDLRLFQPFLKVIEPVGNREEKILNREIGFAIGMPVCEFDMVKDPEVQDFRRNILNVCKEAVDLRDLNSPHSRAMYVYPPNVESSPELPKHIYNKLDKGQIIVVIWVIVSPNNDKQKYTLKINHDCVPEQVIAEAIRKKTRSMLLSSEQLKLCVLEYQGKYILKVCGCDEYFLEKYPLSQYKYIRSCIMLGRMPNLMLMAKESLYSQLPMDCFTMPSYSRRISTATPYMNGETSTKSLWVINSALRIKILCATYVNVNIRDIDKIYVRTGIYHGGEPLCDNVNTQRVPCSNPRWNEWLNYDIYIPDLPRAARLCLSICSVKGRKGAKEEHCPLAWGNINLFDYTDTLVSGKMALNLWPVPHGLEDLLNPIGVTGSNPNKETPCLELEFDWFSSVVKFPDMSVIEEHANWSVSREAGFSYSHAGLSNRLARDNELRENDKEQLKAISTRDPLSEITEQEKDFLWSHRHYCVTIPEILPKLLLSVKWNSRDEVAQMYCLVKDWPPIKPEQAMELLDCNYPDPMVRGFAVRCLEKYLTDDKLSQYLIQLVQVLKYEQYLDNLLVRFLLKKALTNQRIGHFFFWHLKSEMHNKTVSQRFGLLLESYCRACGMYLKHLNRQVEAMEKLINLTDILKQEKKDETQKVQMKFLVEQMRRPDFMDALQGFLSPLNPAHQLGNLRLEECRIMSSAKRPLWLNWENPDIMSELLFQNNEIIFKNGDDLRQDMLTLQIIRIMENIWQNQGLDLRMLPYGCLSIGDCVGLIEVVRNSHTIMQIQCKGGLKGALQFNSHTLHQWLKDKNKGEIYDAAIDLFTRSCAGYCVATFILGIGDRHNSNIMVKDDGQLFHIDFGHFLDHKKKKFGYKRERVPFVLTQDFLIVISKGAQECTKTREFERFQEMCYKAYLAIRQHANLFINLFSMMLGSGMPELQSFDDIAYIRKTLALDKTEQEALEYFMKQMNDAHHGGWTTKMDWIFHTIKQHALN
human PI3Kα, sequence (P27986 whole entry partner): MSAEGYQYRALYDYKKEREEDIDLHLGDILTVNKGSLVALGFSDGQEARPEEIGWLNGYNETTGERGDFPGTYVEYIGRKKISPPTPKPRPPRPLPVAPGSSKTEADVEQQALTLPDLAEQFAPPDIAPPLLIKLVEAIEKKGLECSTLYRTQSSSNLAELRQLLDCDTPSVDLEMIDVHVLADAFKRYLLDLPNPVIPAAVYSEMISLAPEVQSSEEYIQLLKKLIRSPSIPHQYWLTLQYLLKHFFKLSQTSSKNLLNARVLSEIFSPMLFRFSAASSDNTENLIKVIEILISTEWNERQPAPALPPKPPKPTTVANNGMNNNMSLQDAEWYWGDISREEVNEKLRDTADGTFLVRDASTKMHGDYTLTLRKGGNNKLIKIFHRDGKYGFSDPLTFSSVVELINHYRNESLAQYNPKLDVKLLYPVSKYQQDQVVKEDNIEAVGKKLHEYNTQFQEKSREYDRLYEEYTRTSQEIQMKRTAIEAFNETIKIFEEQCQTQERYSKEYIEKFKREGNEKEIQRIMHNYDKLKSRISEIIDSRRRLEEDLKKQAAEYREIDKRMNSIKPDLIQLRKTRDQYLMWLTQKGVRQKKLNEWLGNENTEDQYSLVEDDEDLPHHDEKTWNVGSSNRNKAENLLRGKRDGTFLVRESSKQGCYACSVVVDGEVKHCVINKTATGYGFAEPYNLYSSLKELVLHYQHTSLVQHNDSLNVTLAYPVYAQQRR

Row | SMILES | IC50 [1, 2] [nM] | IC50 (human PI3Kα) [nM] | IC50 [1] [nM]
1 | O=C(CN1c2nc(N3C[C@@H]4C[C@H]3CO4)cc(=O)n2CC[C@H]1C(F)(F)F)c1ccc(F)cc1F [Compound 48, (8S)-9-[2-(2,4-difluorophenyl)-2-oxoethyl]-2-(1S,4S)-2-oxa-5-azabicyclo[2.2.1]hept-5-yl-8-trifluoromethyl-6,7,8,9-tetrahydropyrimido[1,2-a]pyrimidin-4-one] | 27 | > 10000 | –
2 | CCC(O)(CC)CCN1c2nc(N3C[C@@H]4C[C@H]3CO4)cc(=O)n2CC[C@H]1C(F)(F)F [Compound 49, (8S)-9-(3-ethyl-3-hydroxypentyl)-2-(1S,4S)-2-oxa-5-azabicyclo[2.2.1]hept-5-yl-8-trifluoromethyl-6,7,8,9-tetrahydropyrimido[1,2-a]pyrimidin-4-one] | 6 | 2740 | –
3 | CC(C)(O)CCN1c2nc(N3C[C@@H]4C[C@H]3CO4)cc(=O)n2CC[C@H]1C(F)(F)F [Compound 50, (8S)-9-(3-hydroxy-3-methylbutyl)-2-(1S,4S)-2-oxa-5-azabicyclo[2.2.1]hept-5-yl-8-trifluoromethyl-6,7,8,9-tetrahydropyrimido[1,2-a]pyrimidin-4-one] | 8 | 4300 | –
4 | Cn1nc(CN2c3nc(N4C[C@@H]5C[C@H]4CO5)cc(=O)n3CC[C@H]2C(F)(F)F)c2ccccc21 [Compound 51, (8S)-9-(1-methyl-1H-indazol-3-ylmethyl)-2-(1S,4S)-2-oxa-5-azabicyclo[2.2.1]hept-5-yl-8-trifluoromethyl-6,7,8,9-tetrahydropyrimido[1,2-a]pyrimidin-4-one] | 65 | > 10000 | –
5 | O=C(CN1c2nc(N3C[C@@H]4C[C@H]3CO4)cc(=O)n2CC[C@H]1C(F)(F)F)c1cnc(OCC2CC2)nc1 [Compound 52, (8S)-9-[2-(2-Cyclopropylmethoxypyrimidin-5-yl)-2-oxoethyl]-2-(1S,4S)-2-oxa-5-azabicyclo[2.2.1]hept-5-yl-8-trifluoromethyl-6,7,8,9-tetrahydropyrimido[1,2-a]pyrimidin-4-one] | 130 | > 10000 | –
6 | Cc1noc(C)c1C(=O)CN1c2nc(N3C[C@@H]4C[C@H]3CO4)cc(=O)n2CC[C@H]1C(F)(F)F [Compound 53, (8S)-9-[2-(3,5-dimethylisoxazol-4-yl)-2-oxoethyl]-2-(1S,4S)-2-oxa-5-azabicyclo[2.2.1]hept-5-yl-8-trifluoromethyl-6,7,8,9-tetrahydropyrimido[1,2-a]pyrimidin-4-one] | 870 | > 10000 | –
7 | CCC(O)(CC)CN1c2nc(N3C[C@@H]4C[C@H]3CO4)cc(=O)n2CC[C@H]1C(F)(F)F [Compound 54, (8S)-9-(2-ethyl-2-hydroxybutyl)-2-(1S,4S)-2-oxa-5-azabicyclo[2.2.1]hept-5-yl-8-trifluoromethyl-6,7,8,9-tetrahydropyrimido[1,2-a]pyrimidin-4-one] | 10 | 2210 | –
8 | N#Cc1cccc(C(=O)CN2c3nc(N4C[C@@H]5C[C@H]4CO5)cc(=O)n3CC[C@H]2C(F)(F)F)c1 [Compound 55, 3-[2-((S)-8-(1S,4S)-2-Oxa-5-azabicyclo[2.2.1]hept-5-yl-6-oxo-2-trifluoromethyl-3,4-dihydro-2H,6H-pyrimido[1,2-a]pyrimidin-1-yl)acetyl]benzonitrile] | – | > 10000 | 28
9 | CC(C)C(=O)CN1c2nc(N3C[C@@H]4C[C@H]3CO4)cc(=O)n2CC[C@H]1C(F)(F)F [Compound 56, (8S)-9-(3-methyl-2-oxobutyl)-2-(1S,4S)-2-oxa-5-azabicyclo[2.2.1]hept-5-yl-8-trifluoromethyl-6,7,8,9-tetrahydropyrimido[1,2-a]pyrimidin-4-one] | 45 | > 10000 | –
10 | CCOC(=O)Nc1ccc(C(=O)CN2c3nc(N4C[C@@H]5C[C@H]4CO5)cc(=O)n3CC[C@H]2C(F)(F)F)cn1 [Compound 57, ethyl {5-[2-((S)8-(1S,4S)-2-oxa-5-azabicyclo[2.2.]hept-5-yl-6-oxo-2-trifluoromethyl-3,4-dihydro-2H,6H-pyrimido[1,2-a]pyrimidin-1-yl)acetyl]pyrid-2-yl}carbamate] | 65 | > 10000 | –
11 | COC(=O)Nc1ccc(C(=O)CN2c3nc(N4C[C@@H]5C[C@H]4CO5)cc(=O)n3CC[C@H]2C(F)(F)F)cn1 [Compound 58, {5-[2-((S)-8-(1S,4S)-2-Oxa-5-azabicyclo[2.2.1]hept-5-yl-6-oxo-2-trifluoromethyl-3,4-dihydro-2H,6H-pyrimido[1,2-a]pyrimidin-1-yl)acetyl]pyrid-2-yl}carbamic acid methyl ester] | – | 6400 | 53
12 | Cc1nc(CN2c3nc(N4C[C@@H]5C[C@H]4CO5)cc(=O)n3CC[C@H]2C(F)(F)F)no1 [Compound 59, (8S)-9-(5-Methyl-[1,2,4]oxadiazol-3-ylmethyl)-2-(1S,4S)-2-oxa-5-azabicyclo[2.2.1]hept-5-yl-8-trifluoromethyl-6,7,8,9-tetrahydropyrimido[1,2-a]pyrimidin-4-one] | 87 | > 10000 | –
13 | O=C(CN1c2nc(N3C[C@@H]4C[C@H]3CO4)cc(=O)n2CC[C@H]1C(F)(F)F)c1cccnc1C(F)(F)F [Compound 60, (8S)-2-(1S,4S)-2-Oxa-5-azabicyclo[2.2.1]hept-5-yl-9-[2-oxo-2-(2-trifluoromethylpyrid-3-yl)ethyl]-8-trifluoromethyl-6,7,8,9-tetrahydropyrimido[1,2-a]pyrimidin-4-one] | – | > 10000 | 19
14 | O=C(CN1c2nc(N3C[C@@H]4C[C@H]3CO4)cc(=O)n2CC[C@H]1C(F)(F)F)c1ccc2nsnc2c1 [Compound 61, (8S)-9-(2-Benzo[1,2,5]thiadiazol-5-yl-2-oxoethyl)-2-(1S,4S)-2-oxa-5-azabicyclo[2.2.1]hept-5-yl-8-trifluoromethyl-6,7,8,9-tetrahydropyrimido[1,2-a]pyrimidin-4-one] | 130 | > 10000 | –
15 | O=C(CN1c2nc(N3C[C@@H]4C[C@H]3CO4)cc(=O)n2CC[C@H]1C(F)(F)F)C1CCOCC1 [Compound 62, (8S)-2-(1S,4S)-2-Oxa-5-azabicyclo[2.2.1]hept-5-yl-9-[2-oxo-2-(tetrahydropyran-4-yl)ethyl]-8-trifluoromethyl-6,7,8,9-tetrahydropyrimido[1,2-a]pyrimidin-4-one] | 11 | > 10000 | –
16 | O=C(CN1c2nc(N3C[C@@H]4C[C@H]3CO4)cc(=O)n2CC[C@H]1C(F)(F)F)c1ccc(OCCF)nc1 [Compound 63, (S)-9-{2-[6-(2-fluoroethoxy)pyrid-3-yl]-2-oxoethyl}-2-(1S,4S)-2-oxa-5-azabicyclo[2.2.1]hept-5-yl-8-trifluoromethyl-6,7,8,9-tetrahydropyrimido[1,2-a]pyrimidin-4-one] | 384 | > 7200 | –
17 | O=C(CN1c2nc(N3C[C@@H]4C[C@H]3CO4)cc(=O)n2CC[C@H]1C(F)(F)F)c1ccc(OCCF)c(F)c1 [Compound 64, (8S)-9-{2-[3-Fluoro-4-(2-fluoroethoxyl)phenyl]-2-oxoethyl}-2-(1S,4S)-2-oxa-5-azabicyclo[2.2.1]hept-5-yl-8-trifluoromethyl-6,7,8,9-tetrahydropyrimido[1,2-a]pyrimidin-4-one] | 39 | > 10000 | –
